Experimental findings from patent publication US20150315202A1, “CHLORIN DERIVATIVE USEFUL IN PHOTODYNAMIC THERAPY AND DIAGNOSIS” (RMW CHO GROUP LIMITED, priority 2012, published 2015) are described below.

A short description of series [1]: Singlet oxygen detection by photosensitized oxygenation of DPIBF. The settings on record: ethanol, red light 660 nm. It is filed as physicochemical. The text has this:
The second method of singlet oxygen detection was based on photosensitized oxygenation of the singlet oxygen conjugate 1,3-diphenylisobenzofuran (DPIBF) (Acros Organics, United Kingdom). DPIBF chemically binds to two singlet oxygens (^1O2) (FIG. 3). This method was applied to chlorin e4 sodium solutions in ethanol. The major absorption band of DPIBF is located at 414-415 nm. The molar absorption coefficient in this maximum, εDPIBF, is known to be 23500 M^−1 cm^−1. Tested solutions were irradiated by the monochromatic light from a xenon lamp using the excitation system of the spectrofluorimeter Perkin-Elmer MPF-44B, the spectral width of the monochromator bandwidth corresponding to 5 nm. Radiant power was measured using the calibrated detector ThorLabs PM-100 (Germany). The singlet oxygen quantum yields (ΦΔ) were calculated according to the equation: […]

Series [2] in a line: Fluorescence spectra and fluorescence quantum yield (reference TPPS). It is filed as physicochemical. The protocol: Absorption spectra were recorded using computerized spectrophotometers Hitachi 3400 (Japan) and SF-2000 (Russia). Fluorescence spectra were measured with a computerized spectrofluorimeter Perkin-Elmer MPF-44B. 10 mm wide quartz cuvettes were used for absorption and fluorescence measurements. Fluorescence was detected at a right angle to the excitation beam. The spectral bandwidth of the monochromator was 3 nm. […] The fluorescence quantum yields (ΦF) were determined using as a reference, solutions of TPPS (m-tetrakis(p-sulfonatophenyl)porphine) in ethanol. According to the literature, the most likely fluorescence quantum yield of TPPS in air-saturated water and ethanol is equal to 0.08 (K. Kalyanasundaram and M. Neumann-Spallart, Photophysical and redox properties of water soluble porphyrins in aqueous media, J. Phys. Chem., 1982, 86, 5163-5169; and A. T. Gradyushko, A. N. Sevchenko, K. N. Solovyov and M. P. Tsvirko, Energetics of photophysical processes in chlorophyll-like molecules, Photochem. Photobiol., 1970, 11, 387-400). The fluorescence of the samples was excited by the monochromatic light corresponding to the maximum of the Soret bands: 415 nm for TPPS in ethanol and 413 nm for TPPS in water, and 403 nm for chlorin e4 sodium in water and ethanol. The monochromator bandwidth was 3 nm. The fluorescence quantum yields (ΦF) were calculated using the following equation: […]
where (ΦTPP is the quantum yield of TPPS fluorescence, Sc is the square under the fluorescence spectrum of the chlorin e4 sodium sample, STPP is the square under the fluorescence spectrum of TPPS, and Dc and DTPP are absorbance (optical density) of the chlorin e4 sodium and TPPS respectively at the excitation wavelengths. The obtained results were collated using relative units of intensity of the excited light at the excitation wavelengths. The intensities of the monochromatic light were measured using a calibrated silicon detector from Optical Power Meter System ThorLabs (Karlsfeld, Germany).

The subject of series [3] is non-small cell lung cancer with metastases in the lymph nodes and bones. The experiment in a line: In vivo studies Example 8: patient, oral chlorin e4 sodium plus laser and LED light. Details: species or system human. The protocol:
A patient with non-small cell lung cancer with metastases in the lymph nodes and bones, was treated successfully. The treatment consisted of two courses. For each course, five doses of 62.5-187.5 mg chlorin e4 sodium were administered orally over the course of eight days. About 24 hours after each oral dose of chlorin e4 sodium, the patient was treated with laser and LED light having a wavelength of 660 nm and 760 nm.

The subject of series [4] is stage IVB Hodgkin's lymphoma with metastases. Description: In vivo studies Example 4: patient, oral chlorin e4 sodium plus laser and LED light. Also on record: species or system human. The protocol:
A patient with stage IVB Hodgkin's lymphoma with metastases in the liver, lymphatic system, spleen, lung and bones, was treated successfully. The treatment consisted of three courses. For each course, five doses of 62.5-187.5 mg chlorin e4 sodium were administered orally over the course of eight days. 24-48 hours after each oral dose of chlorin e4 sodium, the patient was treated with laser and LED light having a wavelength of 660 nm and 760 nm.
Subsequently the patient was treated with a further two courses. Again, for each course, five doses of 62.5-187.5 mg chlorin e4 sodium were administered orally over the course of eight days. 24-48 hours after each oral dose of chlorin e4 sodium, the patient was treated with laser and LED light having a wavelength of 660 nm and 760 nm.

The subject of series [5] is lung cancer. The experiment in a line: In vivo studies Example 5: patient, oral chlorin e4 sodium plus laser and LED light. Also on record: species or system human. To be noted: three months after one course. The protocol:
A patient with lung cancer was treated successfully. The treatment consisted of one course of five doses of 62.5-187.5 mg chlorin e4 sodium administered orally over the course of eight days. 24-48 hours after each oral dose of chlorin e4 sodium, the patient was treated with laser and LED light having a wavelength of 660 nm and 760 nm.

Series [6] concerns breast cancer in the right breast. The experiment in a line: In vivo studies Example 9: patient, oral chlorin e4 sodium plus laser and LED light. Also on record: species or system human. The protocol: A patient with breast cancer in the right breast was treated successfully. The treatment consisted of three courses. For each course, five doses of 62.5-187.5 mg chlorin e4 sodium were administered orally over the course of eight days. 24-48 hours after each oral dose of chlorin e4 sodium, the patient was treated with laser and LED light having a wavelength of 660 nm and 760 nm.

Each structure is given as a SMILES string. Entries after “also recorded” stand apart in the source; their conditions may differ.

Turning to `C=Cc1c(C)c2cc3nc(c(C)c4[nH]c(cc5nc(cc1[nH]2)C(C)=C5CC)c(C)c4C(=O)O)[C@@H](CCC(=O)O)[C@@H]3C` [chlorin e4 sodium], the “Quantum yield of singlet oxygen generation” value in series [1] came out at 0.68±0.05. Moreover, the “Fluorescence quantum yield (ranking among solvents)” value in series [2] (SDS containing water) is recorded as “slightly less”; in series [2] (ethanol), “highest”; in series [2] (water without SDS), “smallest; also recorded: still high”. Besides, the Patient status result in series [3] (10 months after starting, seven months after completion of treatment) is “alive and well”; in series [6] (one year and seven months after starting, 10 months after completion of treatment), “alive and well”. The “Response of the lungs (PET/CT)” value in series [3] (before and after two courses) is “many tumours disappearing and the remaining tumours showing no or low metabolic activity”. Also, the Side effects result in series [3] (two courses) and in series [6] (three courses) was “no side effects” each time. For the same molecule, the “Response (PET/CT)” value in series [4] (after a further two courses) is “good treatment response”. For the same molecule, the “Tumours in areas treated with light (CT)” value in series [4] (after three courses) was “some tumours disappeared altogether and some tumours reduced in size”. Also, in series [4] (life expectancy before treatment only two weeks), the Survival time result is “two years and two months”. The CT scan finding entry in series [5] was “tumour breakdown”. Further, in series [6] (before and after three courses), the “Response of the breasts (mammography, ultrasound and PET/CT)” value is “complete response”.
